Several values for one entry are separate records, joined by “and”; a condition that tells them apart may be missing. Identical values can stand only once. ± gives the expanded uncertainty stated by the source. One block for each molecule: values may come before it.
Tests used:
[1] = Liquid, DSC
[2] = Boiling temperature at pressure P; details: Liquid, DSC

Compound: CCCC(=O)OCC(COC(=O)CCC)OC(=O)CCC [1,2,3-propanetriyl tributanoate]
vapor or sublimation pressure ([1]; 459.56 K): 1.69 ± 0.19 kPa

Compound: CCCCCCCCC(=O)OCC(O)CO (configuration not stated) [2,3-dihydroxypropyl nonanoate]
vapor or sublimation pressure ([1]; 478.88 K): 1.69 ± 0.19 kPa

Compound: CCCCCCCCC(=O)OCC(CO)OC(=O)CCCCCCCC (configuration not stated) [dinonanoin]
Boiling temperature at pressure P ([2]; 0.54 kPa): 231.07 ± 2.4 °C
Boiling temperature at pressure P ([2]; 1.42 kPa): 253.1 ± 3.1 °C
Boiling temperature at pressure P ([2]; 1.74 kPa): 258.40 ± 2.4 °C
Boiling temperature at pressure P ([2]; 2.14 kPa): 263.86 ± 2.6 °C
Boiling temperature at pressure P ([2]; 2.63 kPa): 269.97 ± 2.8 °C
vapor or sublimation pressure ([1]; 532.03 K): 1.7 ± 0.19 kPa

Compound: CCCCCCCCCCCCCCCCCCCCCCCCCCCC [octacosane]
vapor or sublimation pressure ([1]; 550.62 K): 1.7 ± 0.17 kPa

The remaining lines, values ahead:

vapor or sublimation pressure ([1]; 462.29 K): 1.73 ± 0.17 kPa and 1.72 ± 0.17 kPa
Compound: CCCCCCCCCCCCCCCCO [1-hexadecanol]

vapor or sublimation pressure ([1]; 483.46 K): 1.73 ± 0.19 kPa
Compound: CCCCCCCCCCCCCCCCCCO [1-octadecanol]

vapor or sublimation pressure ([1]; 437.72 K): 1.72 ± 0.19 kPa
Compound: CCCCCCCCCCCCCC(=O)OC [methyl tetradecanoate]

Reference: the NIST ThermoML archive (doi:10.1021/acs.jced.8b00168)
